According to article PMC7790557, “Pleiotropic Properties of Amphiphilic Dihydropyridines, Dihydropyridones, and Aminovinylcarbonyl Compounds” (Oxidative Medicine and Cellular Longevity, 2020):
Read-outs that look alike come from different tables or passages of the source.

Assays:
NIH3T3 = test: in vitro; conditions: for LD50 (calculated, NIH3T3): mouse
Source text: Data from the in vitro tests were used for estimating the starting dose for acute oral systemic toxicity tests in the rodent. The in vivo starting dose is an estimated LD50 value calculated by inserting the in vitroIC50 value into a regression formula: log LD50 (mM/kg) = 0.439 log IC50 (mM) + 0.621 [23–25]. […] Using an alternative in vitro method allows the comparison between possibly toxic new compounds and selecting compounds for further study vastly reducing the number of animal experiments.
Additionally, the compound influence on “normal” mouse fibroblasts (NIH3T3) was estimated for the studies of structure-activity relationships and exploration of the effect of substituents.

[1] = tested on: NIH3T3 (mouse embryonic fibroblast); test: Basal cytotoxicity test, Neutral Red Uptake (NRU) assay; conditions: for IC50: Mus musculus, NIH3T3, 24 h
Method: The NRU cytotoxicity assay procedure is based on the ability of viable cells to incorporate and bind neutral red, a supravital dye.
Balb/c NIH 3T3 (mouse Swiss albino embryo fibroblast, ATCC® CRL-1658™) cells (9000 cells/well) were placed into 96-well plates for 24 h in Dulbecco's modified Eagle's medium (DMEM) containing 5% fetal bovine serum. Then, the cells were exposed to the test compound over a range of seven concentrations (1000, 316, 100, 31, 10, 3, and 1 μg/ml) for 24 h. Untreated cells were used as a control. After 24 h, the medium was removed from all plates. Then, 150 μl of neutral red solution was added (0.05 mg/ml NR in DMEM 24 h preincubated at 37°C and then filtered before use through a 0.22 μm syringe filter). Plates were incubated for 3 h, and then, the cells were washed three times with PBS. The dye within viable cells was released by extraction with a mixture of acetic acid, ethanol, and water (1 : 50 : 49). The absorbance of neutral red was measured using a spectrophotometer multiplate reader (Tecan Infinite M1000) at 540 nm. The optical density (OD) was calculated using the following formula: OD (treated cells) × 100/OD (control cells). The IC50 values were calculated using the GraphPad Prism® 3.0 program.

[2] = tested on: HT-1080 (human lung fibrosarcoma); test: Cytotoxicity, MTT assay, HT-1080; type: cell-based; conditions: 72 h exposure; for IC50: Homo sapiens, HT-1080, read-out: HT-1080 IC50 (MTT)
Source text: (§1) Reduction takes place only when mitochondrial reductase enzymes are active, and therefore, conversion is directly related to the number of viable cells which can be quantified by the absorbance of the solution (between λ = 500 and 600 nm) using a spectrophotometer.

MH-22A (mouse hepatoma) [3] = test: Cytotoxicity, crystal violet (CV) assay, MH-22A; type: cell-based; conditions: Mus musculus, 72 h exposure, read-out: MH-22A IC50 (CV)
Method: After incubation, the staining solution was removed. The cells were washed 4 times with water.

MH-22A (mouse hepatoma) [4] = test: Cytotoxicity, MTT assay, MH-22A; type: cell-based; conditions: 72 h exposure; for IC50: Mus musculus, read-out: MH-22A IC50 (MTT)
Source text: as §1

[5] = tested on: HT-1080 (human lung fibrosarcoma); test: Cytotoxicity, crystal violet (CV) assay, HT-1080; conditions: Homo sapiens, HT-1080, 72 h, read-out: HT-1080 IC50 (CV)
Method: IC50 is the compound concentration (μg/ml) at which 50% of the cells die. […] CV staining can be used to quantify the total DNA of the remaining population and thus is used to determine the number of live cells based on the concentration of the dye which remains after staining.
Tumor cell lines HT-1080 (human connective tissue fibrosarcoma, ATCC® CCL-121™) and MH-22A (mouse hepatocarcinoma, ECACC, cat. Nr. 96121721) were used.
HT-1080 and MH-22A cells were seeded in 96-well plates in Dulbecco's modified Eagle's (DMEM) medium containing 10% fetal bovine serum and 4 mM L-glutamine, without antibiotics, and cultivated for 72 h by exposure to different concentrations of compounds. Cell viability was measured using 3-(4,5-dimethylthiazol-2-yl)-2,5-diphenyltetrazolinium bromide (MTT). In brief, after incubating with compounds, the culture medium was removed and fresh medium with 0.2 mg/ml MTT was added in each well of the plate. After incubation (3 h, 37°C, 5% CO2), the medium with MTT was removed, and 200 μl DMSO was added at once to each sample. The samples were tested at 540 nm on a Tecan Infinite M1000 multiplate reader. The IC50 was calculated using the program GraphPad Prism® 3.0.
For the CV assay, cells were stained with 0.05% crystal violet (Sigma-Aldrich) in 30% methanol for 20 minutes at room temperature. After incubation, the staining solution was removed. The cells were washed 4 times with water. For dye solubilization, 200 μl of a solubilizing solution (0.1 M citrate buffer, pH 4.2 in 50% ethanol; 1 : 1 v/v) was added. The absorbance of the solution was measured using a Tecan Infinite M1000 multiplate spectrophotometer at a wavelength of 570 nm [21].

[6] = read-out: NIH3T3 IC50 (NR), Table 2, 24 h exposure

Molecule	IC50 ([2]; Table 2)	IC50 (MH-22A (mouse hepatoma) [3]; Table 2)	IC50 (MH-22A (mouse hepatoma) [4]; Table 2)	IC50 [5]	IC50 [1, 6]	IC50 ([2]; Table 1)	IC50 (MH-22A (mouse hepatoma) [4]; Table 1)	IC50 ([1]; read-out: NIH3T3 IC50 (NR))	also measured
CCCCCCCCCCCCCCCCOC(=O)/C=C(\N)C[N+](C)(C)CCCCCCCCCCCC [compound 46, (Z,E)-N-(2-Amino-4-(hexadecyloxy)-4-oxobut-2-en-1-yl)-N,N-dimethyldodecan-1-aminium iodide]	–	–	–	–	–	–	–	–	NIH3T3 LD50 (NIH3T3; Table 3, calculated from NIH3T3 IC50 by regression formula): 637 mg/kg; IC50 in NIH3T3 cell lines [1]: around 30 μg/ml; NIH3T3 IC50 (NR) ([1]; Table 3, 24 h exposure): 34 ± 8 µg/mL
O=C1CC(c2ccccc2)C(C(=O)OCCCCC(F)(F)C(F)(F)C(F)(F)C(F)(F)C(F)(F)C(F)(F)C(F)(F)C(F)(F)F)=C(C[n+]2ccccc2)N1.[Br-] (centres unmarked) [compound 31, 1-((3-(((5,5,6,6,7,7,8,8,9,9,10,10,11,11,12,12,12-Heptadecafluorododecyl)oxy)carbonyl)-6-oxo-4-phenyl-1,4,5,6-tetrahydropyridin-2-yl)methyl)pyridin-1-ium bromide]	3 ± 0.2 µg/mL	3 ± 1 µg/mL	3 ± 0.6 µg/mL	3 ± 0.3 µg/mL	15 ± 2 µg/mL	–	–	–	–
CCCCCCCCCCCC[N+](C)(C)CC1=C(C(=O)OC)C(c2ccccc2)CC(=O)N1 (centres unmarked) [compound 33, N-((3-(methyloxycarbonyl)-6-oxo-4-phenyl-1,4,5,6-tetrahydropyridin-2-yl)methyl-N,N-dimethyldodecan-1-aminium bromide]	1 ± 0.2 µg/mL	2 ± 0.1 µg/mL	2 ± 0.6 µg/mL	2 ± 0.4 µg/mL	4 ± 1 µg/mL	–	–	–	–
CCCCCCCCCCCC[N+](C)(C)CC1=C(C(=O)OC)CCC(=O)N1 [compound 36, N-((3-(methyloxycarbonyl)-6-oxo-1,4,5,6-tetrahydropyridin-2-yl)methyl-N,N-dimethyldodecan-1-aminium bromide]	1 ± 0.2 µg/mL	18 ± 3 µg/mL	16 ± 3 µg/mL	2 ± 0.2 µg/mL	63 ± 11 µg/mL	–	–	–	–
O=C1CC(c2ccccc2)C(C(=O)OCCCCC(F)(F)C(F)(F)C(F)(F)C(F)(F)C(F)(F)C(F)(F)C(F)(F)C(F)(F)F)=C([P+](c2ccccc2)(c2ccccc2)c2ccccc2)N1.[Br-] (centres unmarked) [compound 30, (3-(((5,5,6,6,7,7,8,8,9,9,10,10,11,11,12,12,12-Heptadecafluorododecyl)oxy)carbonyl)-6-oxo-4-phenyl-1,4,5,6-tetrahydropyridin-2-yl)triphenylphosphonium bromide]	9 ± 2 µg/mL	30 ± 11 µg/mL	39 ± 5 µg/mL	10 ± 2 µg/mL	127 ± 11 µg/mL	–	–	–	times less cytotoxic than dihydropyridone 31 in the NIH3T3 cells (NIH3T3; from LD50 1779 mg/kg versus 604 mg/kg): about 3 times
1,1'-((4-(2-(Difluoromethoxy)phenyl)-3,5-bis(methoxycarbonyl)-1,4-dihydropyridine-2,6-diyl)bis(methylene))bis(1-methylpiperidin-1-ium) diperchlorate [compound 9]	–	–	–	–	–	–	–	–	HT-1080 IC50 (MTT) ([2]; Table 1): ∗ (∗: not detected); MH-22A IC50 (MTT) (MH-22A (mouse hepatoma) [4]; Table 1): ∗ (∗: not detected); NIH3T3 IC50 (NR) ([1]; Table 1, 24 h exposure): ∗ (∗: not detected)
CCOC(=O)C1=C(C[n+]2ccc(N)cc2)NC(C[n+]2ccc(N)cc2)=C(C(=O)OCC)C1c1ccccc1.[Br-].[Br-] [compound 3, 1,1'-((3,5-Bis(ethoxycarbonyl)-4-phenyl-1,4-dihydropyridine-2,6-diyl)bis(methylene))-bis(4-aminopyridin-1-ium) dibromide]	–	–	–	–	–	441 ± 46 µg/mL	> 740 µg/mL	> 1000 µg/mL	LD50 (calculated, NIH3T3) (NIH3T3): > 2000 mg/kg
CCOC(=O)C1=C(C[n+]2cccc(C)c2)NC(C[n+]2cccc(C)c2)=C(C(=O)OCC)C1c1ccccc1.[Br-].[Br-] [compound 5, 1,1'-((3,5-Bis(ethoxycarbonyl)-4-phenyl-1,4-dihydropyridine-2,6-diyl)bis(methylene))-bis(3-methylpyridin-1-ium) dibromide]	–	–	–	–	–	> 740 µg/mL	> 100 µg/mL	> 1000 µg/mL	LD50 (calculated, NIH3T3) (NIH3T3): > 2000 mg/kg
CCOC(=O)C1=C(C[n+]2ccccc2)NC(C[n+]2ccccc2)=C(C(=O)OCC)C1c1ccccc1C(F)(F)F.[Br-].[Br-] [compound 6, 1,1'-((3,5-Bis(ethoxycarbonyl)-4-(2-(trifluoromethyl)phenyl)-1,4-dihydropyridine-2,6-diyl)bis(methylene))bis(pyridin-1-ium) dibromide]	–	–	–	> 100 µg/mL	–	> 100 µg/mL	> 100 µg/mL	> 1000 µg/mL	IC50 (MH-22A (mouse hepatoma) [3]; Table 1): > 100 µg/mL; LD50 (calculated, NIH3T3) (NIH3T3): > 2000 mg/kg
CCCCCCCCCCCCOC(=O)C1=C(C[N+](C)(C)CCCCCCCCCCCC)NC(C[N+](C)(C)CCCCCCCCCCCC)=C(C(=O)OCCCCCCCCCCCC)C1c1ccccc1.[O-][Cl+3]([O-])([O-])[O-].[O-][Cl+3]([O-])([O-])[O-] [compound 20, N,N'-((3,5-bis((dodecyloxy)carbonyl)-4-phenyl-1,4-dihydropyridine-2,6-diyl)bis(methylene))bis(N,N-dimethyldodecan-1-aminium) diperchlorate]	–	–	–	3 ± 0.3 µg/mL	–	3 ± 0.4 µg/mL	10 ± 2 µg/mL	–	IC50 (MH-22A (mouse hepatoma) [3]; Table 1): 10 ± 2 µg/mL; IC50 ([1]; read-out: NIH3T3 IC50 (NR), Table 1, 24 h exposure): 19 ± 6 µg/mL
CCCCCCCCCCCCOC(=O)C1=C(C[n+]2ccccc2)NC(C[n+]2ccccc2)=C(C(=O)OCCCCCCCCCCCC)C1c1ccc(O)cc1.[Br-].[Br-] [compound 18, 1,1'-((3,5-Bis((dodecyloxy)carbonyl)-4-(4-hydroxyphenyl)-1,4-dihydropyridine-2,6-diyl)bis(methylene))bis(pyridin-1-ium) dibromide]	–	–	–	4.3 ± 0.6 µg/mL	–	10 ± 2 µg/mL	16 ± 2 µg/mL	95 ± 7 µg/mL	IC50 (MH-22A (mouse hepatoma) [3]; Table 1): 3.4 ± 0.6 µg/mL
CCOC(=O)C1=C(C[n+]2ccc(N(C)C)cc2)NC(C[n+]2ccc(N(C)C)cc2)=C(C(=O)OCC)C1c1ccccc1.[Br-].[Br-] [compound 4, 1,1'-((3,5-Bis(ethoxycarbonyl)-4-phenyl-1,4-dihydropyridine-2,6-diyl)bis(methylene))-bis(4-(dimethylamino)pyridin-1-ium) dibromide]	–	–	–	–	–	324 ± 29 µg/mL	608 ± 49 µg/mL	> 1000 µg/mL	LD50 (calculated, NIH3T3) (NIH3T3): > 2000 mg/kg
CCCCCCCCCCCCOC(=O)C1=C(C[N+](C)(C)CCCCCCCCCCCC)NC(=O)CC1 [compound 37, N-((3-(dodecyloxycarbonyl)-6-oxo-1,4,5,6-tetrahydropyridin-2-yl)methyl-N,N-dimethyldodecan-1-aminium bromide]	3 ± 0.4 µg/mL	3 ± 0.6 µg/mL	1 ± 0.2 µg/mL	2 ± 0.5 µg/mL	7 ± 1 µg/mL	–	–	–	–
CCCCCCCCCCCCOC(=O)C1=C(C[N+](C)(C)CCCCCCCCCCCC)NC(=O)CC1c1ccccc1 (centres unmarked) [compound 34, N-((3-(dodecyloxycarbonyl)-6-oxo-4-phenyl-1,4,5,6-tetrahydropyridin-2-yl)methyl-N,N-dimethyldodecan-1-aminium bromide]	2 ± 0.6 µg/mL	3 ± 0.8 µg/mL	< 1 µg/mL	2 ± 0.2 µg/mL	6 ± 2 µg/mL	–	–	–	–
O=C1CC(c2ccccc2)C(C(=O)OCCCCC(F)(F)C(F)(F)C(F)(F)C(F)(F)C(F)(F)C(F)(F)C(F)(F)C(F)(F)F)=C(C[n+]2ccccc2)N1.[O-][Cl+3]([O-])([O-])[O-] (centres unmarked) [compound 32, 1-((3-(((5,5,6,6,7,7,8,8,9,9,10,10,11,11,12,12,12-Heptadecafluorododecyl)oxy)carbonyl)-6-oxo-4-phenyl-1,4,5,6-tetrahydropyridin-2-yl)methyl)pyridin-1-ium perchlorate]	3 ± 0.5 µg/mL	2 ± 0.3 µg/mL	3 ± 0.2 µg/mL	3 ± 0.3 µg/mL	15 ± 3 µg/mL	–	–	–	–
CCCCCCCCCCCC[N+](C)(C)CC1=C(C(=O)OCCCCC(F)(F)C(F)(F)C(F)(F)C(F)(F)C(F)(F)C(F)(F)C(F)(F)C(F)(F)F)C(c2ccccc2)CC(=O)N1 (centres unmarked) [compound 35, N-((3-((5,5,6,6,7,7,8,8,9,9,10,10,11,11,12,12,12-Heptadecafluorododecyloxy)carbonyl)-6-oxo-4-phenyl-1,4,5,6-tetrahydropyridin-2-yl)methyl-N,N-dimethyldodecan-1-aminium bromide]	30 ± 11 µg/mL	26 ± 6 µg/mL	30 ± 8 µg/mL	3 ± 0.3 µg/mL	27 ± 9 µg/mL	–	–	–	–
CCCCCCCCCCCCOC(=O)C1=C(C[n+]2ccc(C)cc2)NC(C[n+]2ccc(C)cc2)=C(C(=O)OCCCCCCCCCCCC)C1c1ccc(O)cc1.[Br-].[Br-] [compound 19, 1,1'-((3,5-Bis((dodecyloxy)carbonyl)-4-(4-hydroxyphenyl)-1,4-dihydropyridine-2,6-diyl)bis(methylene))bis(4-methylpyridin-1-ium) dibromide]	–	–	–	32 ± 8 µg/mL	–	22 ± 5 µg/mL	30 ± 8 µg/mL	44 ± 11 µg/mL	IC50 (MH-22A (mouse hepatoma) [3]; Table 1): 21 ± 3 µg/mL
